Data as given in patent publication US20220313656A1, “NEW CLASS OF ANTIBIOTICS HAVING LOW MIC-VALUES TOWARDS DIFFERENT STRAINS OF BACTERIA” (priority 2019, published 2022).
Like-named read-outs stand apart in the source and are kept apart here.

Columns and labels:
Test in all cases: MIC, serial dilution method (CLSI)
Salmonella enteritidis = assay type: cell-based
Experimental: (§1) These inoculums were each in diluted 1:100 in Müller Hinton (MH) broth (Sigma, Copenhagen, Denmark). From the diluted inoculums 100 μl was transferred to each well in a 96-well plate and mixed with the compound to be MIC determined. The plate was incubated for 24 hours at 37° C. (without shaking). The MIC value was determined as the lowest concentration in which no bacterial growth could be visually detected. All MIC determinations were done in duplicates. […] Since all derivatives are new, no control strains (with reference MIC values) were available.

Streptococcus equi = assay type: cell-based
Experimental: as §1

Listeria monocytogenes = assay type: cell-based
Experimental: as §1

Bacillus cereus = assay type: cell-based
Experimental: as §1

[1] = system: Staphylococus pseudintermedius; assay type: cell-based, Staphylococcus pseudintermedius
Experimental: as §1

E. faecalis = assay type: cell-based, Enterococcus faecalis
Experimental: as §1

E. coli APEC O2 = assay type: cell-based, Escherichia coli
Experimental: as §1

E. faecium = assay type: cell-based, Enterococcus faecium
Experimental: as §1

S. aureus CC398 = assay type: cell-based, Staphylococcus aureus
Experimental: as §1

S. aureus USA300 = assay type: cell-based, Staphylococcus aureus
Experimental: as §1

[2] = Salmonella enteritidis, MH broth, 24 hours at 37° C., set to 256 if growth at […]
[3] = MH broth, 24 hours at 37° C., set to 256 if growth at […]
[4] = Staphylococus pseudintermedius, MH broth, 24 hours at 37° C., set to 256 if growth at […]
[5] = E. faecalis, MH broth, 24 hours at 37° C., set to 256 if growth at […]
[6] = E. coli APEC O2, MH broth, 24 hours at 37° C., set to 256 if growth at […]
[7] = E. faecium, MH broth, 24 hours at 37° C., set to 256 if growth at […]
[8] = S. aureus CC398 (MRSA strain), MH broth, 24 hours at 37° C., set to 256 if growth at […]
[9] = S. aureus USA300, MH broth, 24 hours at 37° C., set to 256 if growth at […]
[10] = Salmonella enterica, ENTERITIDIS, 24 h, read-out: MIC
[11] = Staphylococcus pseudintermedius, 24 h, read-out: MIC
[12] = Enterococcus faecalis, 24 h, read-out: MIC
[13] = Escherichia coli, APECO2, 24 h, read-out: MIC
[14] = Enterococcus faecium, 24 h, read-out: MIC
[15] = Staphylococcus aureus, MRSA, 24 h, read-out: MIC
[16] = Staphylococcus aureus, USA300, 24 h, read-out: MIC

Compound | MIC (Salmonella enteritidis; [2]) | MIC (Streptococcus equi; [3]) | MIC (Listeria monocytogenes; [3]) | MIC (Bacillus cereus; [3]) | MIC [1, 4] | MIC (E. faecalis; [5]) | MIC (E. coli APEC O2; [6]) | MIC (E. faecium; [7]) | MIC (S. aureus CC398; [8]) | MIC (S. aureus USA300; [9]) | MIC (Salmonella enteritidis; [10]) | MIC (Streptococcus equi; 24 h, read-out: MIC) | MIC (Listeria monocytogenes; 24 h, read-out: MIC) | MIC (Bacillus cereus; 24 h, read-out: MIC) | MIC [1, 11] | MIC (E. faecalis; [12]) | MIC (E. coli APEC O2; [13]) | MIC (E. faecium; [14]) | MIC (S. aureus CC398; [15]) | MIC (S. aureus USA300; [16])
C[N+](C)(CCC=C1c2ccccc2Sc2ccc(Cl)cc21)Cc1ccccc1 [Chlorprothixene Benzyl] | 64 µg/mL | 2 µg/mL | 32 µg/mL | 16 µg/mL | 2 µg/mL | 16 µg/mL | 64 µg/mL | 16 µg/mL | 2 µg/mL | 4 µg/mL | – | – | – | – | – | – | – | – | – | –
C=CC[N+](C)(C)CCC=C1c2ccccc2Sc2ccc(Cl)cc21 [Chlorprothixene 2-Propene-1-yl] | 128 µg/mL | 8 µg/mL | 32 µg/mL | 32 µg/mL | 8 µg/mL | 128 µg/mL | 128 µg/mL | 64 µg/mL | 16 µg/mL | 16 µg/mL | – | – | – | – | – | – | – | – | – | –
CC[N+](C)(C)CCCN1c2ccccc2Sc2ccc(Cl)cc21.[Br-] [Compound S3, 3-(2-chloro-10H-phenothiazin-10-yl)-N-ethyl-N,N-dimethylpropan-1-aminium bromide] | – | – | – | – | – | – | – | – | – | – | 256 µg/mL | 16 µg/mL | 32 µg/mL | 32 µg/mL | 8 µg/mL | 128 µg/mL | 256 µg/mL | 32 µg/mL | 16 µg/mL | 16 µg/mL
CCCCC[N+](C)(C)CCCN1c2ccccc2Sc2ccc(Cl)cc21.[Br-] [Compound S6, N-(3-(2-chloro-10H-phenothiazin-10-yl)propyl)-N,N-dimethylpentan-1-aminium bromide] | – | – | – | – | – | – | – | – | – | – | 256 µg/mL | 32 µg/mL | 64 µg/mL | 64 µg/mL | 32 µg/mL | 128 µg/mL | 256 µg/mL | 64 µg/mL | 64 µg/mL | 64 µg/mL
CC(CN1c2ccccc2Sc2ccccc21)[N+](C)(C)C.[I-] (centres unmarked) [Compound S13, N,N,N-trimethyl-1-(10H-phenothiazin-10-yl)propan-2-aminium iodide] | – | – | – | – | – | – | – | – | – | – | 128 µg/mL | 32 µg/mL | 256 µg/mL | 128 µg/mL | 64 µg/mL | 256 µg/mL | 256 µg/mL | 128 µg/mL | 128 µg/mL | 128 µg/mL
CCOC(=O)CC[N+](C)(C)CCCN1c2ccccc2Sc2ccc(Cl)cc21 [Chlorpromazine 3-Ethoxy-3-oxo-1-propyl] | 64 µg/mL | 32 µg/mL | 64 µg/mL | 128 µg/mL | 32 µg/mL | 64 µg/mL | 128 µg/mL | 32 µg/mL | 64 µg/mL | 64 µg/mL | – | – | – | – | – | – | – | – | – | –
C[N+](C)(C)CCCN1c2ccccc2Sc2ccc(Cl)cc21.[I-] [Compound S2, 3-(2-chloro-10H-phenothiazin-10-yl)-N,N,N-trimethylpropan-1-aminium iodide] | – | – | – | – | – | – | – | – | – | – | 256 µg/mL | 16 µg/mL | 64 µg/mL | 32 µg/mL | 8 µg/mL | 128 µg/mL | 256 µg/mL | 32 µg/mL | 32 µg/mL | 32 µg/mL
CC(C)=CCCC(C)CC[N+](C)(C)C(C)CN1c2ccccc2Sc2ccccc21.Cc1ccc(S(=O)(=O)[O-])cc1 (centres unmarked) [Compound S45, N-(1-(10H-phenothiazin-10-yl)propan-2-yl)-N,N,3,7-tetramethyloct-6-en-1-aminium 4-methylbenzenesulfonate] | – | – | – | – | – | – | – | – | – | – | – | – | – | – | – | – | – | – | – | 4 µg/mL

Second part, the molecule after the results:

MIC (Salmonella enteritidis; [2]) | MIC (Streptococcus equi; [3]) | MIC (Listeria monocytogenes; [3]) | MIC (Bacillus cereus; [3]) | MIC [1, 4] | MIC (E. faecalis; [5]) | MIC (E. coli APEC O2; [6]) | MIC (E. faecium; [7]) | MIC (S. aureus CC398; [8]) | MIC (S. aureus USA300; [9]) | MIC (Salmonella enteritidis; [10]) | MIC (Streptococcus equi; 24 h, read-out: MIC) | MIC (Listeria monocytogenes; 24 h, read-out: MIC) | MIC (Bacillus cereus; 24 h, read-out: MIC) | MIC [1, 11] | MIC (E. faecalis; [12]) | MIC (E. coli APEC O2; [13]) | MIC (E. faecium; [14]) | MIC (S. aureus CC398; [15]) | MIC (S. aureus USA300; [16]) | Compound
256 µg/mL | 32 µg/mL | 128 µg/mL | 128 µg/mL | 32 µg/mL | 256 µg/mL | 256 µg/mL | 128 µg/mL | 64 µg/mL | 64 µg/mL | – | – | – | – | – | – | – | – | – | – | COC(=O)CCCCC[N+](C)(C)C(C)CN1c2ccccc2Sc2ccccc21 (centres unmarked) [Promethazine 6-Methoxy-6-oxo-1-hexyl]
– | – | – | – | – | – | – | – | – | – | 64 µg/mL | 4 µg/mL | 8 µg/mL | 8 µg/mL | 4 µg/mL | 32 µg/mL | 64 µg/mL | 16 µg/mL | 32 µg/mL | 8 µg/mL | CCCCC[N+](C)(C)C(C)CN1c2ccccc2Sc2ccccc21.[Br-] (centres unmarked) [Compound S17, N-(1-(10H-phenothiazin-10-yl)propan-2-yl)-N,N-dimethylpentan-1-aminium bromide]
64 µg/mL | 2 µg/mL | 4 µg/mL | 2 µg/mL | 2 µg/mL | 8 µg/mL | 128 µg/mL | 8 µg/mL | 2 µg/mL | 2 µg/mL | – | – | – | – | – | – | – | – | – | – | CSc1ccc2c(c1)N(CCC1CCCC[N+]1(C)Cc1ccccc1)c1ccccc1S2 (centres unmarked) [Thioridazine Benzyl]
– | – | – | – | – | – | – | – | – | – | 256 µg/mL | 256 µg/mL | 128 µg/mL | 64 µg/mL | 32 µg/mL | 128 µg/mL | 256 µg/mL | 128 µg/mL | 32 µg/mL | 32 µg/mL | CC[N+](C)(C)CC/C=C1/c2ccccc2Sc2ccc(Cl)cc21.[Br-] [Compound S36, (Z)-3-(2-chloro-9H-thioxanthen-9-ylidene)-N-ethyl-N,N-dimethylpropan-1-aminium bromide]
– | – | – | – | – | – | – | – | – | – | 128 µg/mL | 256 µg/mL | 128 µg/mL | 128 µg/mL | 32 µg/mL | 128 µg/mL | 128 µg/mL | 128 µg/mL | 16 µg/mL | 64 µg/mL | CC(C)[N+](C)(C)C(C)CN1c2ccccc2Sc2ccccc21.[Br-] (centres unmarked) [Compound S15, N-isopropyl-N,N-dimethyl-1-(10H-phenothiazin-10-yl)propan-2-aminium bromide]
– | – | – | – | – | – | – | – | – | – | 128 µg/mL | 8 µg/mL | 32 µg/mL | 64 µg/mL | 8 µg/mL | 64 µg/mL | 256 µg/mL | 64 µg/mL | 16 µg/mL | 16 µg/mL | C=CC[N+](C)(C)CCCN1c2ccccc2Sc2ccc(Cl)cc21.[Br-] [Compound S40, N-(3-(2-chloro-10H-phenothiazin-10-yl)propyl)-N,N-dimethylprop-2-en-1-aminium bromide]
– | – | – | – | – | – | – | – | – | – | – | – | – | – | – | – | – | – | – | 4 µg/mL | CCCCCCCCCCCC[N+](C)(C)CC/C=C1/c2ccccc2Sc2ccc(Cl)cc21.[Br-] [Compound S39, (Z)—N-(3-(2-chloro-9H-thioxanthen-9-ylidene)propyl)-N,N-dimethyldodecan-1-aminium bromide]
– | – | – | – | – | – | – | – | – | – | 256 µg/mL | 32 µg/mL | 32 µg/mL | 256 µg/mL | 32 µg/mL | 256 µg/mL | 256 µg/mL | 128 µg/mL | 64 µg/mL | 128 µg/mL | CC[N+](C)(C)C(C)CN1c2ccccc2Sc2ccccc21.[Br-] (centres unmarked) [Compound S14, N-ethyl-N,N-dimethyl-1-(10H-phenothiazin-10-yl)propan-2-aminium bromide]
– | – | – | – | – | – | – | – | – | – | 64 µg/mL | 4 µg/mL | 8 µg/mL | 8 µg/mL | 4 µg/mL | 16 µg/mL | 64 µg/mL | 16 µg/mL | 4 µg/mL | 4 µg/mL | CC(C)CC[N+](C)(C)CC/C=C1/c2ccccc2Sc2ccc(Cl)cc21.[Br-] [Compound S37, (Z)—N-(3-(2-chloro-9H-thioxanthen-9-ylidene)propyl)-N,N,3-trimethylbutan-1-aminium bromide]
128 µg/mL | 16 µg/mL | 32 µg/mL | 32 µg/mL | 16 µg/mL | 128 µg/mL | 128 µg/mL | 64 µg/mL | 16 µg/mL | 16 µg/mL | – | – | – | – | – | – | – | – | – | – | CC(CN1c2ccccc2Sc2ccccc21)[N+](C)(C)Cc1ccccc1 (centres unmarked) [Promethazine Benzyl]
– | – | – | – | – | – | – | – | – | – | 64 µg/mL | 2 µg/mL | 8 µg/mL | 8 µg/mL | 2 µg/mL | 16 µg/mL | 64 µg/mL | 16 µg/mL | 4 µg/mL | 4 µg/mL | CCCCC[N+](C)(C)CC/C=C1/c2ccccc2Sc2ccc(Cl)cc21.[Br-] [Compound S38, (Z)—N-(3-(2-chloro-9H-thioxanthen-9-ylidene)propyl)-N,N-dimethylpentan-1-aminium bromide]
– | – | – | – | – | – | – | – | – | 8/16 | – | – | – | – | – | – | – | – | – | – | CCCCCCCCCCCCCC[N+](C)(C)C(C)CN1c2ccccc2Sc2ccccc21.[Br-] (centres unmarked) [Compound S44, N-(1-(10H-phenothiazin-10-yl)propan-2-yl)-N,N-dimethyltetradecan-1-aminium bromide]
